Experimental data published in patent publication US20220040129A1, “TREATMENT OF HYPERAMMONEMIA IN PATIENTS WITH RENAL INSUFFICIENCY” (RECORDATI S.p.A., priority 2019, published 2022).
Read-outs that look alike come from different tables or passages of the source.

Key:
[1] = CARIV-A-001 Part B: cross-over IV infusion over 2 hours vs oral tablet 100 mg/kg in healthy subjects; format: in vivo, human; settings: for AUC: read-out: aucL, Median
Procedure: The levels of CGA in plasma and urine were analysed using a fully validated method, which included LC-MS/MS analysis. The PK data were analysed based on a non-compartmental model. A model-based approach was implemented for the characterization of the PK properties of the IV formulation in order to estimate the level of PK exposure after different doses administered with different duration of infusion. The model outcomes provided rationales for supporting decision-making through the dose escalation process. The PK parameters were determined using SAS (version 9.3), and modelling of the PK data was performed using NONMEM (version 7.3, ICON Solutions). PART A: Mono-Centre, Randomized, Successive Groups, Double-Blind, Placebo-Controlled Study in Healthy Male and Female Subjects
Part B was a randomized, double-blind, cross-over, two-sequence study. It was conducted in 12 healthy male and female subjects.
In two treatment periods, separated by a washout of at least two weeks, subjects received a single administration of the study medication in fasting conditions, either as an IV loading dose infusion of Rec0/0491 over 2 hours (started with 6 mg/kg/h then reduced to 4.0 mg/kg/h), or an oral tablet administration of Carbaglu® (100 mg/kg).
Blood samples for PK measurements were collected at 19 timepoints for the IV administration and 17 timepoints for the oral administration. This included a sample prior to intake of the study medication and the period ranging from 20 minutes to 72 hours following the initiation of the IV infusion, and the period ranging from 30 minutes to 72 hours following oral intake. Urine was also collected for PK measurements, at the following intervals relative to the time of administration of the study medication: 0-6, 6-12, 12-24, 24-36 and 36-48 hours.
The PK analysis of Carbaglu was conducted on all subjects showing quantifiable plasma levels using standard non-compartmental approach.

[2] = Adverse reactions in retrospective studies of patients with NAGS deficiency, PA, MMA or IVA; format: in vivo, human; settings: Total Population = 80
Source text: Sixty-one percent (61%) of patients were male and 39% of patients were female. In patients with PA, MMA or IVA (48% male and 52% female patients), 57% of decompensation episodes occurred during the first 4 weeks after birth (neonates), and 43% of decompensation episodes occurred beyond the neonatal period. The median age at the start of the decompensation episode was 12 days.

[3] = Population PK model (two-compartment, zero order absorption); design: species or system human; settings: value estimated in HVs, fixed in the model
Source text: A population PK model was developed using PK data collected from the PK study mentioned above. The data was collected after variable long treatment periods lasting more than a year in some cases, with different doses, and with different dosage regimens in both pediatric and adult volunteers (N=16).
The sparse drug concentrations (24 PK samples) were fitted using a two-compartment model with zero order absorption rate, which was also used to describe the PK time course in the PK study.
The final models for Clearance and Volume were:
Wherein CL is the value of the clearance in a patient, CLt is the typical value of the clearance in adult subjects, WT is the body weight, TM50 is the maturation half time, g is the Hill coefficient and Vt is the typical value of the volume in adult subjects.

[4] = both sexes, human, plasma, IV, 12 mg/kg, N 2
[5] = dose normalized section, Reference (IV data), in h
[6] = dose normalized section, Test (oral data), in h
[7] = dose normalized, Reference (IV data)
[8] = dose normalized, Test (oral data)

Work on `NC(=O)N[C@@H](CCC(=O)O)C(=O)O` [carglumic acid, N-carbamoyl-L-glutamic acid] yielded an AUC ([1]; both sexes, human, plasma, IV, 8 mg/kg, N 10) of 22000 ng·h/mL, an AUC(0-t) [1, 4] of 52100 ng·h/mL and an AUC [1, 4] of 52100 ng·h/mL. The “refHalf_life, Max” value [1, 5] was 52.95, the “refHalf_life, Mean” value [1, 5] was 31.351 and the “refHalf_life, Median” value [1, 5] was 28.81. The “refHalf_life, Min” value [1, 5] was 22.85, the testHalf life, Mean ([1]; dose normalized section, Test (oral data)) was 24.6 h and the “testHalf_life, Max” value [1, 6] was 35.31. For the same compound, the “testHalf_life, Median” value [1, 6] was 23.71, the “testHalf_life, Min” value [1, 6] was 17.56 and the “refAUCinf, Max” value [1, 7] was 5219. The “refAUCinf, Mean” value [1, 7] was 3299.58, the “refAUCinf, Median” value [1, 7] was 3162.4 and the “refAUCinf, Min” value [1, 7] was 2118.74. For the same compound, the “refAUClast, Max” value [1, 7] was 5084.78, the “refAUClast, Mean” value [1, 7] was 3105.22 and the “refAUClast, Median” value [1, 7] was 2840.05. For the same compound, the “refAUClast, Min” value [1, 7] was 1964.13, the “refCL, Max” value [1, 7] was 0.059 and the “refCL, Mean” value [1, 7] was 0.038. For the same compound, the “refCL, Median” value [1, 7] was 0.04, the “refCL, Min” value [1, 7] was 0.016 and the “refCmax, Max” value [1, 7] was 1958.33. For the same compound, the “refCmax, Mean” value [1, 7] was 1195.1, the “refCmax, Median” value [1, 7] was 1148.13 and the “refCmax, Min” value [1, 7] was 675. For the same compound, the “testAUCinf, Max” value [1, 8] was 456.96, the “testAUCinf, Mean” value [1, 8] was 314.25 and the “testAUCinf, Min” value [1, 8] was 218.52. For the same compound, the “testAUClast, Max” value [1, 8] was 442.5, the “testAUClast, Mean” value [1, 8] was 298.07 and the “testAUClast, Min” value [1, 8] was 200.31. For the same compound, the “testCL, Max” value [1, 8] was 0.046, the “testCL, Mean” value [1, 8] was 0.033 and the “testCL, Min” value [1, 8] was 0.022. For the same compound, the “testCmax, Max” value [1, 8] was 56.2, the “testCmax, Mean” value [1, 8] was 32.84 and the “testCmax, Min” value [1, 8] was 19.5. The “Absolute bioavailability F of the oral vs IV formulation, Mean” value ([1]; from dose normalized AUCinf, 12 subjects) was 9.87%, the “Total clearance after oral administration corrected by the bioavailability value of F=9.87%” value ([1]; oral) was 5.83 mL/min/kg and the “Adverse reaction Abdominal pain, Number of Patients (N) (%)” value [2] was 4 (5%) N (%). For the same compound, the “Adverse reaction Anemia, Number of Patients (N) (%)” value [2] was 4 (5%) N (%), the “Adverse reaction Anorexia, Number of Patients (N) (%)” value [2] was 2 (3%) N (%) and the “Adverse reaction Diarrhea, Number of Patients (N) (%)” value [2] was 5 (5%) N (%). For the same compound, the “Adverse reaction Dysgeusia, Number of Patients (N) (%)” value [2] was 2 (3%) N (%), the “Adverse reaction Ear infection, Number of Patients (N) (%)” value [2] was 3 (4%) N (%) and the “Adverse reaction Headache, Number of Patients (N) (%)” value [2] was 3 (4%) N (%). The “Adverse reaction Hemoglobin decreased, Number of Patients (N) (%)” value [2] was 2 (3%) N (%), the “Adverse reaction Hyperhidrosis, Number of Patients (N) (%)” value [2] was 2 (3%) N (%) and the “Adverse reaction Infection, Number of Patients (N) (%)” value [2] was 3 (4%) N (%). The “Adverse reaction Influenza, Number of Patients (N) (%)” value [2] was 2 (3%) N (%), the “Adverse reaction Jaundice, Number of Patients (N) (%)” value [2] was 2 (3%) N (%) and the “Adverse reaction Nasopharyngitis, Number of Patients (N) (%)” value [2] was 3 (4%) N (%). The “Adverse reaction Nervous system disorder, Number of Patients (N) (%)” value [2] was 2 (3%) N (%), the “Adverse reaction Pneumonia, Number of Patients (N) (%)” value [2] was 2 (3%) N (%) and the “Adverse reaction Pyrexia, Number of Patients (N) (%)” value [2] was 7 (9%) N (%). For the same compound, the “Adverse reaction Rash, Number of Patients (N) (%)” value [2] was 2 (3%) N (%), the “Adverse reaction Somnolence, Number of Patients (N) (%)” value [2] was 2 (3%) N (%) and the “Adverse reaction Tonsillitis, Number of Patients (N) (%)” value [2] was 4 (5%) N (%). The “Adverse reaction Transaminase increased, Number of Patients (N) (%)” value [2] was 2 (3%) N (%), the “Adverse reaction Vomiting, Number of Patients (N) (%)” value [2] was 6 (8%) N (%) and the “Adverse reaction Weight decreased, Number of Patients (N) (%)” value [2] was 2 (3%) N (%). For the same compound, the “CLt, typical value of the clearance in adult subjects” value [3] was 0.178.
